Laboratory results as given in US20040059104A1, “Nucleotide mimics and their prodrugs” (priority 2002, published 2004).
pIC50, pKi: −log10 of the molar value.

Columns and labels:
Staphylococcus aureus = experiment: Antimicrobial assay, minimal inhibitory concentration; assay type: cell-based
Procedure: (§1) To examine the antimicrobial potential of the nucleotide mimics of the present invention an assay was employed that allowed the screening of a large number of compounds simultaneously. The type of bacteria chosen to screen the compounds are organisms associated with human disease and represent major groups of bacteria based on their structure and metabolism. Bacterial cultures of Escherichia coli and Staphylococcus aureus were incubated overnight at 37° C. in a shaker incubator. A lawn of each overnight bacterial culture was made by plating […] of bacteria on agar plates containing Nutrient Broth. Immediately after plating, sterile blank paper discs were put on top of the lawn and a compound was applied to each blank paper disc. Plates were then incubated overnight and examined for the inhibition of bacterial growth the following day. […] The plates were incubated overnight at 37° C. and then examined spectrophotometrically at 600 nm to determine the minimum concentration of each compound that inhibited replication of bacteria as determined by no increase in absorbance at 600 nm.

[1] = molecular target: T1, HIV Reverse Transcriptase (Type B, 66 kDa subunit) (Human immunodeficiency virus type 1 group M subtype B, UniProt P04585); experiment: HIV Reverse Transcriptase inhibition assays (RNA-directed DNA polymerization, PicoGreen fluorescence); assay type: biochemical; details: Table 1; template (homopolymer or heteropolymer RNA) not stated; read-out: Ki, Inhibition of HIV Reverse Transcriptase by Nucleotide Mimics
T1 construct: purified HIV Reverse Transcriptase (Type B, 66 kDa subunit)
Procedure: The assays employed to measure inhibition of HIV Reverse Transcriptase (HIV RT) catalyzed/RNA-directed DNA polymerization are described below. The effectiveness of the compounds of the present invention as inhibitors of HIV RT-catalyzed DNA polymerization was measured in the following assays.
This assay was used to measure the ability of the nucleotide mimics of the present invention to inhibit the enzymatic synthesis of complementary strand DNA from a DNA-primed template of homopolymeric RNA. This assay is a modification of a published procedure (Seville, et al., “Fluorometric Assay for DNA Polymerases and Reverse Transcriptase”, BioTechniques 1996, 21, 664-72).
The compounds were tested at various concentrations up to 500 μM final concentration. DNA polymerase activity was measured in a reaction buffer containing primed-RNA template and dTTP diluted to appropriate concentrations in assay buffer. Nucleotide mimics of the present invention were diluted in buffer and pipetted into the wells of a 96-well plate. The reaction was initiated by addition of enzyme and allowed to proceed at 37° C. for 10 minutes. The reaction was quenched by addition of 5 μL 0.2 M EDTA, pH 8.0.
200 μL of diluted PicoGreen dsDNA Quantitation Reagent (Molecular Probes, Inc, Eugene, Oreg.) was added to each well of a 96-well plate and incubated at room temperature for 5 minutes. Plate wells were read on a microplate fluorometer (Molecular Devices Corp., Sunnyvale, Calif.). The wells were excited at 480 nm and the fluorescence emission intensity (RFU) was measured at 520 nm. The percentage of inhibition was calculated according to the following equation:
% Inhibition=[1−(RFU in test reaction−RFU in blank)/(RFU in control reaction−RFU in blank)]×100.
Each inhibitor was titrated over an appropriate range of concentrations, and inhibition constants were determined using the following equations:
v=Vm[S]/(Km(1+[I]/Ki)+[S])
Certain compounds of the present invention were also tested to determine their ability to inhibit HIV RT-catalyzed DNA polymerization on a heteropolymeric primed-RNA template in the presence of all four natural deoxynucleotide triphosphate (dNTP) substrates. This assay is a modification of a published procedure (Parker et al., “Mechanism of Inhibition of Human Immunodeficiency Virus Type 1 Reverse Transcriptase and Human DNA Polymerases α, β, and γ by the 5′-Triphosphates of Carbovir,3′-Azido-3′-deoxythymidine,2′-3′-Dideoxyguanosine, and 3′-Deoxythymidine”, J. Biol. Chem. 1991, 266 (3), 1754-62).
HIV RT DNA polymerase activity was measured in a reaction buffer containing primed-ribosomal RNA template and dNTPs diluted to appropriate concentrations in assay buffer and pipetted into 1.5 mL microcentrifuge tubes. Nucleotide mimics of the present invention were diluted in buffer and tested at various concentrations up to 5 μM final concentration. The reaction was initiated by addition of enzyme and allowed to proceed at 42° C. for 60 to 90 minutes. The reaction was quenched by addition of 12 μL 0.2 M EDTA, pH 8.0.
50 μL each of reaction was transferred to the well of a 96-well plate (in duplicate). 200 μL of diluted PicoGreen dsDNA Quantitation Reagent was added to each well of a 96-well plate and incubated at room temperature for 5 minutes. Plate wells were read on a microplate fluorometer. The wells were excited at 480 nm and the fluorescence emission intensity (RFU) was measured at 520 nm. The percentage of inhibition and inhibition constants […] were determined for representative compounds as described above.

Escherichia coli = experiment: Antimicrobial assay, minimal inhibitory concentration; assay type: cell-based
Procedure: as §1

HIV-1RF = experiment: Anti-HIV-1 cytoprotection assay in CEM-SS cells; assay type: cell-based; details: CEM-SS cells infected with HIV-1RF, MOI approximately 0.01, 6 days, MTS; read-out: CEM-SS IC50 (Anti-HIV Screening)
Procedure: (§2) ollowing paper: Structure-Activity and Cross-Resistance unodeficiency Virus Type 1-Specific ckheit, Jr. et al., Antimicrobial Agents and s were evaluated in CEM-SS cell cultures V-1RF at an MOI of approximately 0.01. At he soluble tetrazolium-based dye MTS viability and quantify compound toxicity of metabolically active cells to yield a soluble analysis of cell viability and compound
Efficacy Evaluation in CEM-SS Cells Anti-HIV-1 Cytoprotection Assay
Cell Preparation—CEM-SS cells were passaged in T-75 flasks prior to use in the antiviral assay. On the day preceding the assay, the cells were split 1:2 to assure they were in an exponential growth phase at the time of infection. Total cell and viability quantification was performed using a hemacytometer and trypan blue exclusion. Cell viability was greater than 95% for the cells to be utilized in the assay. The cells were resuspended at 5×10^4 cells/ml in tissue culture medium and added to the drug-containing microtiter plates in a volume of 50 μl.
Virus Preparation—The virus used for these tests was the lymphocytropic virus strain HIV-1RF. This virus was obtained from the NIH AIDS Research and Reference Reagent Program and was grown in CEM-SS cells for the production of stock virus pools. For each assay, a pre-titered aliquot of virus was removed from the freezer (−80° C.) and allowed to thaw slowly to room temperature in a biological safety cabinet. The virus was resuspended and diluted into tissue culture medium such that the amount of virus added to each well in a volume of 50 μl was the amount determined to give between 85 to 95% cell killing at 6 days post-infection.
(§3) At assay termination, the assay plates were stained with the soluble tetrazolium-based dye MTS (CellTiter Reagent Promega) to determine cell viability and quantify compound toxicity. MTS is metabolized by the mitochondrial enzymes of metabolically active cells to yield a soluble formazan product, allowing the rapid quantitative analysis of cell viability and compound cytotoxicity. […] At termination of the assay, 20 μL of MTS reagent was added per well. The microtiter plates were then incubated 4-6 hrs at 37° C. for the HIV cytoprotection assay; the incubation intervals were chosen based on empirically determined times for optimal dye reduction. Adhesive plate sealers were used in place of the lids, the sealed plate was inverted several times to mix the soluble formazan product and the plate was read spectrophotometrically at 490 nm with a Molecular Devices Vmax plate reader.

CEM-SS cells = experiment: Compound toxicity in CEM-SS cells (MTS staining); assay type: cell-based; details: read-out: CEM-SS TC50
Procedure: as §2, §3

in vitro [2] = experiment: in vitro
Procedure: Typically the total volume used for the experiment was 500 μl. The final concentrations of the reaction components were as follows:
The reacton mixtures were made up and incubated at 37° C. At appropriate times aliquots of 25 μl were removed and added to 65 μl ice-cold methanol. These solutions were our at −20° C. and typically overnight. After incubation samples were inutes at high speed in a microcentrifuge. The supernatant was nd the extract was dried under vacuum in a LabConco Centrivap Concentrator. The dried extracts were resuspended in dH2O and filtered to remove particulate before analysis on reverse phase HPLC.
The reverse phase HPLC columns used for the analysis were either a Phenomenex C18 Aqua column (2×100 mm) or the Phenomenex C18 Aqua column (3×150 mm) used with the appropriate guard column. The HPLC was run at 0.2 ml/min (for the 2×100 mm column) or at 0.5 ml/min (for the 3×150 mm column) with the following buffer system: 5 mM tetrabutylammonium acetate, 50 mM ammonium phosphate, and an acetonitrile gradient running from 5% up to as high as 60%. The amount of remaining parent compound at each time point was used to determine the half-life of the compound. […] Unmodified nucleoside triphosphates were used as positive controls.

in vitro [3] = experiment: in vitro; remark: listed apart in the source
Procedure: The stability of compounds in cell extracts was examined as follows:
Cell lysis buffer was added to cell pellets and the cells frozen and thawed 3× using dry ice. The lysis buffer (LB) was composed of the following: 50 mM Tris-HCl, pH 7.4 (100 μl/ml 10× stock), 20% glycerol (200 μl/ml), and 0.5% Triton X-100 (5 μl/ml). 100 μl of LB was added to each microfuge tube containing 10^7 frozen CEM cells. After the cells were lysed the extracts were centrifuged at high speed in a microcentrifuge for 5 minutes and the clarified cell extract transferred to a new tube. The cell stability reaction mixtures contained concentrations of buffer, magnesium, nucleotide, and cell extract as shown below:
The reaction mixtures were incubated at 37° C. At each time point, including at time zero, 12.5 μl aliquots were added to 40 μl ice-cold methanol. […] The samples were incubated in methanol for at least 60 minutes and typically overnight at −20° C. prior to further processing. The cell extracts were centrifuged at high speed in refrigerated microcentrifuge for 20 minutes and the supernatant transferred to a new tube. The extract was then dried under vacuum in a LabConco Centrivap Concentrator. The samples were then resuspended in 40 or 50 μl dH2O, filtered to remove any particulate, and analyzed by reverse phase HPLC.
The reverse phase HPLC columns used for the analysis were either a Phenomenex C18 Aqua column (2×100 mm) or the Phenomenex C18 Aqua column (3×150 mm) used with the appropriate guard column. The HPLC flow rate was either 0.2 ml/min (for the 2×100 mm column) or 0.5 ml/min (for the 3×150 mm column) with the following buffer system: 5 mM tetrabutylammonium acetate, 50 mM ammonium phosphate, and an acetonitrile gradient running from 5% up to as high as 60%. The amount of remaining parent compound at each time point was used to determine the half-life of the compound. […] Unmodified nucleoside triphosphates were used as positive controls.

[4] = overnight at 37° C., tested 0-200 μg/ml, NA = Not active
[5] = value in brackets beside the μg/ml value

| Compound | S. aureus MIC (Staphylococcus aureus; [4]) | S. aureus MIC (Staphylococcus aureus; [5]) | pKi [1] | E. coli MIC (Escherichia coli; [4]) | E. coli MIC (Escherichia coli; [5]) | pIC50 (HIV-1RF) | CC50 (CEM-SS cells) | other results |
| --- | --- | --- | --- | --- | --- | --- | --- | --- |
| 2′-Deoxy-2′,2′-difluorocytidine 5′-β-O—(S-pivaloyl-2-thioethyl) -α,β-methylene-diphosphonate [Compound 75] | 15 µg/mL | (26) μM |  |  |  |  |  |  |
| 3′-Azido-3′-deoxythymidine 5′-α-P-borano-β,γ-difluoromethylene-γ-O-methyltriphosphate [Compound 40] |  |  | 7.16 | 25 to 50 µg/mL | (40-80) uM | 5.40 | > 200 µM |  |
| 3′-Azido-3′-deoxythymidine 5′-α-P-borano-β,γ-diluoromethylene-γ-O-(4-nitrophenyl)triphosphate [Compound 43] |  |  |  |  |  | 5.19 | 125 µM |  |
| BP(=O)(OC[C@@H]1O[C@H](n2cc(C)c(=O)[nH]c2=O)C[C@H]1N=[N+]=[N-])OP(=O)(O)C(Cl)(Cl)P(=O)(O)O (single isomer, unassigned; isomer 1) [Compound 26-isomer 1, 3′-Azido-3′-deoxythymidine 5′-α-P-borano-β,γ-(dichloromethylene)triphosphate] |  |  | 7.03 | 12 µg/mL | (21) uM |  |  | Half-Life, Serum Half-Lives of NTPs and AZT Triphosphate Mimics (in vitro [2]; bovine, serum): 45 h; Half-Life, Cell extract Half-Lives of AZT Triphosphate Mimics (in vitro [3]; human): >48 h |
| BP(=O)(OC[C@H]1O[C@@H](n2cc(C)c(=O)[nH]c2=O)C[C@H]1N=[N+]=[N-])OP(=O)(O)C(F)(F)P(=O)(O)Oc1ccccc1 (stereo partly drawn) [Compound 42, 3′-Azido-3′-deoxythymidine 5′-α-P-borano-β,γ-difluoromethylene-γ-O-phenyltriphosphate] |  |  | 6.95 |  |  | 5.60 | 32.1 µM | Half-Life, Serum Half-Lives of AZT Triphosphate Mimic Prodrugs (in vitro [2]; bovine, serum): >48 h |
| CC(C)(C)C(=O)SCCOP(=O)(O)CP(=O)(OCCSC(=O)C(C)(C)C)OC[C@H]1O[C@@H](n2ccc(N)nc2=O)C(F)(F)[C@@H]1O (stereo partly drawn) [Compound 76, 2′-deoxy-2′,2′-difluorocytidine 5′-di-α, β-O—(S-pivaloyl-2-thioethyl)-α,β-methylenediphosphonate] | 25 µg/mL | (35) μM |  |  |  |  |  | Half-Life, Serum Half-Lives of Gemcitibine Diphosphate Mimics and Their Prodrugs (in vitro [2]; Table 8, 50% fetal calf serum, 37° C., 500 μM, time points through 48 hours): >48 h; Half-Life, Cell Extract Half-Lives of Gemcitibine 5'-Methylendiphosphonate and its Prodrugs (in vitro [3]; Table 11, 50% CEM cell extract, 37° C., 500 μM, time points through 48 hours): 37 h |
